Measured values as given in patent US20250313807A1, “SYSTEMS AND METHODS FOR CHARACTERIZATION OF POLYCYSTIC KIDNEY DISEASE” (University of Washington, priority 2022, published 2025).

Assays:
PKD organoids [1] = tested on: PKD organoids
Procedure: The low height of the channels in the flow devices enabled continuous time lapse imaging of fluorescent molecules without high background fluorescence.
Organoid perfusion in microfluidic chip. Ibidi μ-Slide VI0.4 were coated with 3.0% Reduced Growth Factor Geltrex (Life Technologies) and left at 37° C. overnight to solidify. Kidney organoids (21-40 d) were picked from adhered culture plates, pipetted into the slide channels (2-3 per channel) with RB, and left for 24 hrs at 37° C. to attach. Organoids were distributed randomly within the channel. For the fluidic condition, 60 mL syringes filled with RB were attached to channels using clear tubing (Cole-Parmer, 0.02″ ID, 0.083″ OD). A clamp was used to close off the tubing, and the media in the syringe was changed to 25 mL RB+36.5 μM 2-NBD-Glucose fluorescent glucose (Abcam ab146200). […]
Image/video collection. […] Experiments in microfluidic devices were recorded for 6 hours. […] Cyst growth rate in microfluidic devices was therefore calculated on an individual basis, when each cyst reached its maximal volume, which varied for each sample from 1 hour to 5 hours after the start of the experiment. For longer-term experiments conducted in static 96-well cultures, organoids were imaged at regular intervals (typically 24 hours) and analyzed at the endpoint indicated in the figure graphs. […]

[2] = tested on: PKD cysts of Pkd1^RC/RC mice; conditions: systemic perfusion with PBS+1 mM NBD-Glucose, kidney tissue sections
Procedure: To determine whether PKD cysts absorbed glucose in vivo, a methodology was devised to inject mice with NBD glucose and immediately retrieve their kidneys (FIG. 6D).
For perfusion experiments, NBD Glucose was freshly dissolved in PBS to a concentration of 1 mM. Freshly sacrificed Pkd1^RC/RC mice (>8 months old) were incised through the chest and nicked at the vena cava with a 27-gauge needle. Keeping pressure on the vena cava, mice were perfused systemically through the heart with a syringe containing 10 mL of PBS, followed by a second syringe containing 5 mL of either PBS alone (control) or PBS+1 mM NBD-Glucose. Kidneys were harvested immediately and embedded fresh without fixation or sucrose equilibration in OCT. Cryostat-cut mouse kidney sections (20 μm) were mounted in OCT and imaged on a confocal microscope with 10× objective. […] Mice were maintained on a standard diet under standard pathogen-free housing conditions, with food and water freely available.

PKD organoid cysts = test: cyst expansion in PKD organoids under static conditions (96-well plate); format: cell-based, human
Procedure: To test functionally whether cyst growth is linked to glucose transport in human organoids, cyst expansion was quantified in increasing concentrations of D-glucose under static conditions (96-well plate).
To test this hypothesis, the effects of pharmacological transport inhibitors on cysts were examined in static conditions.
Kidney organoid differentiation. […] 5,000-20,000 hPSCs per well were placed in each 24-well plate pre-coated with 300 μL of DMEM-F12 containing 0.2 mg/mL Matrigel and sandwiched the following day with 0.2 mg/mL Matrigel in mTeSR1 ([sequence] Technologies, Vancouver) to produce scattered, isolated spheroid colonies. 48 hrs after sandwiching, hPSC spheroids were treated with 12 μM CHIR99021 (Tocris Bioscience) for 36 h, then changed to RB (Advanced RPMI+1× Glutamax+1×B27 Supplement, all from Thermo Fisher Scientific) after 48 hours, and replaced with fresh RB every 3 days thereafter.
Image/video collection. Image collection was performed on a Nikon Ti Live-Cell Inverted Widefield microscope inside of an incubated live imaging chamber supplemented with 5% carbon dioxide. […] For longer-term experiments conducted in static 96-well cultures, organoids were imaged at regular intervals (typically 24 hours) and analyzed at the endpoint indicated in the figure graphs. Phase contrast and GFP (200 ms exposure) images were taken every 5 minutes for a maximum of 12 hours. […]

PKD organoids [3] = test: live/dead staining (calcein AM/propidium iodide) of cystic organoids; format: cell-based, human; conditions: 24 and 48 hours of treatment

SMILES: O=C[C@H](Nc1ccc([N+](=O)[O-])c2nonc12)[C@@H](O)[C@H](O)[C@H](O)CO [NBD glucose, 2-(N-(7-Nitrobenz-2-oxa-1,3-diazol-4-yl)Amino)-2-Deoxyglucose]
- absorption into organoid proximal and distal tubules (immunofluorescence) (PKD organoids [1]; organoid tubules): absorbed into and accumulated inside organoid proximal and distal tubules
- washout from loaded PKD organoids (PKD organoids [1]; switched into media containing only unlabeled glucose, continuous flow): disappeared rapidly
- uptake by cyst-lining epithelia and surrounding interstitium [2]: readily took up NBD glucose

SMILES: O=C(CCc1ccc(O)cc1)c1c(O)cc(O)cc1O [Phloretin, phloretin]
- decrease of cyst size (PKD organoid cysts; 800 μM phloretin, 15 mM glucose): 77%
- toxicity by live-dead staining (PKD organoids [3]): no significant toxicity

SMILES: CCCN(CCC)S(=O)(=O)c1ccc(C(=O)O)cc1 [probenecid]
- effect on cyst growth (PKD organoid cysts; 15 mM D-Glucose, non-toxic doses): no effect on cyst growth
